Source: ChEMBL document CHEMBL1201862, “PubChem BioAssay data set” (2004)
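Results reflect a 48-hour exposure of cells in 96-well plates to compound at five concentrations. Here, GI50 denotes the concentration required for 50% inhibition of growth.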 Calls of active or inactive are those of the source. No stated cut-off is given here; in the data, active = GI50 up to about 1.1 µM and inactive = higher.

Experiments:
Experiment in all cases: inhibition of tumour cell growth, NCI panel, 48 h
TK-10 = test system: TK-10
HCT-116 = test system: HCT-116
786-0 = test system: 786-0
A549 = test system: A549
SN12C = test system: SN12C
IGROV-1 = test system: IGROV-1
DLD-1 = test system: DLD-1
K562 = test system: K562
SNB-19 = test system: SNB-19
OVCAR-5 = test system: OVCAR-5
OVCAR-8 = test system: OVCAR-8
EKVX = test system: EKVX
UACC-257 = test system: UACC-257
COLO 205 = test system: COLO 205
M19-MEL = test system: M19-MEL
SR = test system: SR
MDA-MB-231 = test system: MDA-MB-231
T47D = test system: T47D
MDA-MB-435 = test system: MDA-MB-435
DU-145 = test system: DU-145

Measured: GI50

C=C(CS(=O)(=O)c1ccccc1)C(=O)OCC
inactive: TK-10 17.4 µM | HCT-116 13.4 µM | 786-0 17.3 µM | A549 18.5 µM | SN12C 16.3 µM | IGROV-1 19 µM | DLD-1 4.49 µM | K562 5.33 µM | SNB-19 20 µM | OVCAR-5 19.6 µM | OVCAR-8 10.5 µM | EKVX 19.7 µM | UACC-257 12.8 µM | COLO 205 18.9 µM

C[C@]12CC[C@H](OC(=O)Cc3ccc(N(CCCl)CCCl)cc3)CC1CC[C@@H]1C2CC[C@]2(C)NC(=O)CCC12 (some centres undefined)
inactive: TK-10 19.9 µM | M19-MEL 14.3 µM | HCT-116 5.11 µM | 786-0 11.5 µM | A549 14.6 µM | SN12C 5.38 µM | IGROV-1 14 µM | DLD-1 16.3 µM | K562 4.06 µM | SNB-19 13 µM | OVCAR-8 > 10 µM | UACC-257 13.2 µM | COLO 205 5.4 µM

CCCCCCCCCCCCCC(=O)OCC1OC(n2cc(F)c(=O)[nH]c2=O)C(N)C(OC(=O)CCCCCCCCCCCCC)C1O (centres undefined)
inactive: TK-10 > 100 µM | M19-MEL > 100 µM | HCT-116 > 100 µM | 786-0 > 100 µM | A549 > 100 µM | SN12C > 100 µM | K562 > 100 µM | SR > 100 µM | SNB-19 > 100 µM | OVCAR-8 > 100 µM | EKVX > 100 µM | UACC-257 > 100 µM | COLO 205 > 100 µM

NCCC(N)C(=O)O (centres undefined)
inactive: TK-10 > 100 µM | MDA-MB-231 > 100 µM | HCT-116 > 100 µM | 786-0 > 100 µM | A549 > 100 µM | SN12C > 100 µM | IGROV-1 > 100 µM | K562 > 100 µM | T47D > 100 µM | SR > 100 µM | SNB-19 > 100 µM | OVCAR-5 > 100 µM | OVCAR-8 > 100 µM | MDA-MB-435 > 100 µM | EKVX > 100 µM | UACC-257 > 100 µM | DU-145 > 100 µM | COLO 205 > 100 µM

COC(=O)C[C@H]1CCC2(OCCO2)[C@]1(C)C(=O)OC
inactive: TK-10 > 100 µM | M19-MEL > 100 µM | HCT-116 > 100 µM | 786-0 > 100 µM | A549 > 100 µM | SN12C > 100 µM | IGROV-1 > 100 µM | K562 > 100 µM | SNB-19 > 100 µM | OVCAR-5 > 100 µM | OVCAR-8 > 100 µM | EKVX > 100 µM | UACC-257 > 100 µM | COLO 205 > 100 µM

CC(C)(C)c1cc(-c2ccc(-c3cc(C(C)(C)C)c(O)c(C(C)(C)C)c3)cc2)cc(C(C)(C)C)c1O
inactive: TK-10 > 100 µM | MDA-MB-231 > 100 µM | HCT-116 > 100 µM | 786-0 > 100 µM | A549 > 100 µM | SN12C > 100 µM | IGROV-1 > 100 µM | K562 > 100 µM | T47D > 100 µM | SR > 100 µM | SNB-19 > 100 µM | OVCAR-5 > 100 µM | OVCAR-8 > 100 µM | MDA-MB-435 > 100 µM | EKVX > 100 µM | UACC-257 > 100 µM | DU-145 > 100 µM | COLO 205 > 100 µM

CCCCCCCC(CC(=O)NC(CO)C(=O)NC(CO)CC(C)C)OC(=O)CC(CCCCCCC)OC(=O)CC(CCCCCCC)OC1OC(C)C(O)C(OC2OC(C)C(O)C(O)C2OC(C)=O)C1O (centres undefined)
inactive: TK-10 13.3 µM | MDA-MB-231 9.38 µM | HCT-116 3.94 µM | 786-0 5 µM | A549 12.3 µM | SN12C 4.47 µM | IGROV-1 10.9 µM | K562 4.13 µM | T47D 6.52 µM | SR 2.14 µM | SNB-19 8.26 µM | OVCAR-5 10.3 µM | OVCAR-8 7.35 µM | MDA-MB-435 2.75 µM | EKVX 14.3 µM | UACC-257 2.99 µM | DU-145 10.6 µM | COLO 205 2.04 µM

CCN(CC)CCCCC1CCN(CC(=O)N2c3ccccc3NC(=O)CC2C)CC1 (centres undefined)
inactive: TK-10 > 100 µM | M19-MEL > 100 µM | HCT-116 > 100 µM | 786-0 > 100 µM | A549 > 100 µM | SN12C > 100 µM | IGROV-1 > 100 µM | K562 > 100 µM | SR 56.6 µM | SNB-19 > 100 µM | OVCAR-5 > 100 µM | OVCAR-8 > 100 µM | EKVX > 100 µM | UACC-257 > 100 µM | COLO 205 > 100 µM

CO[C@]12CC(=O)C3(C(C[C@H]4CC5CC[C@H]6C[C@@H](OC(C)=O)CC[C@]6(OC(C)=O)C5C[C@@]43C)C1)C1C[C@H]3[C@@H]4CC[C@H]5C[C@@H](OC(C)=O)CC[C@]5(OC(C)=O)[C@H]4CC[C@]3(C)C12 (some centres undefined)
inactive: TK-10 > 100 µM | MDA-MB-231 > 100 µM | HCT-116 42.5 µM | 786-0 64.4 µM | A549 61.2 µM | SN12C > 100 µM | IGROV-1 > 100 µM | K562 54.6 µM | T47D 37 µM | SR > 100 µM | SNB-19 82.8 µM | OVCAR-5 > 100 µM | OVCAR-8 46 µM | MDA-MB-435 56 µM | EKVX > 100 µM | UACC-257 > 100 µM | DU-145 70.3 µM | COLO 205 40.5 µM

Cc1ccc(NC(c2ccccc2)P(=O)(c2ccccc2)c2ccccc2)cc1 (centres undefined)
inactive: TK-10 > 100 µM | MDA-MB-231 > 100 µM | HCT-116 > 100 µM | 786-0 95.1 µM | A549 > 100 µM | SN12C > 100 µM | IGROV-1 > 100 µM | K562 34.4 µM | T47D > 100 µM | SR 60.3 µM | SNB-19 53.7 µM | OVCAR-5 > 100 µM | OVCAR-8 > 100 µM | MDA-MB-435 > 100 µM | EKVX > 100 µM | UACC-257 > 100 µM | DU-145 > 100 µM | COLO 205 > 100 µM

CC1=NN(C(=O)CC(=O)N(C(=O)c2ccccc2Cl)c2ccc(C)cc2)C(=O)C1/N=N/c1ccc([N+](=O)[O-])cc1 (centres undefined)
inactive: TK-10 49.5 µM | HCT-116 17.7 µM | 786-0 29 µM | A549 34.1 µM | SN12C > 100 µM | IGROV-1 56.2 µM | DLD-1 > 45.9 µM | K562 > 53.5 µM | SR > 100 µM | SNB-19 53.1 µM | OVCAR-5 > 46.1 µM | OVCAR-8 27.9 µM | EKVX > 72.9 µM | UACC-257 > 78.3 µM | COLO 205 > 43.6 µM

CC1(C)N=[N+]([O-])C1(C)C
inactive: TK-10 > 100 µM | MDA-MB-231 > 100 µM | HCT-116 > 100 µM | 786-0 > 100 µM | A549 > 100 µM | SN12C > 100 µM | IGROV-1 > 100 µM | K562 > 100 µM | T47D > 100 µM | SR > 100 µM | SNB-19 > 100 µM | OVCAR-5 > 100 µM | OVCAR-8 > 100 µM | MDA-MB-435 > 100 µM | EKVX > 100 µM | UACC-257 > 100 µM | DU-145 > 100 µM | COLO 205 > 100 µM

CCOc1ccc2c(c1)NC(=O)C(C1OC(c3ccccc3)=CC1=O)S2 (centres undefined)
inactive: TK-10 43.7 µM | MDA-MB-231 25.1 µM | HCT-116 35.6 µM | 786-0 33.3 µM | A549 17.3 µM | SN12C 26.7 µM | IGROV-1 17 µM | K562 24.2 µM | T47D 15.8 µM | SR 15.7 µM | SNB-19 59.8 µM | OVCAR-5 16.1 µM | OVCAR-8 22.5 µM | MDA-MB-435 18.5 µM | EKVX 25.1 µM | UACC-257 56.5 µM | DU-145 38.5 µM | COLO 205 14 µM

NS(=O)(=O)c1ccc(N=C2C(=O)Nc3ccccc32)cc1
inactive: TK-10 > 100 µM | MDA-MB-231 > 100 µM | HCT-116 > 100 µM | 786-0 > 100 µM | A549 > 100 µM | SN12C > 100 µM | IGROV-1 > 100 µM | K562 65.8 µM | T47D > 100 µM | SR 67.8 µM | SNB-19 > 100 µM | OVCAR-5 > 100 µM | OVCAR-8 > 100 µM | MDA-MB-435 24.5 µM | EKVX > 100 µM | UACC-257 > 100 µM | DU-145 > 100 µM | COLO 205 13.1 µM

CNC(=S)NNc1ncnc2c1c(-c1ccc(Cl)cc1)cn2-c1ccc(C)cc1
inactive: TK-10 18.8 µM | MDA-MB-231 7.8 µM | HCT-116 4.57 µM | 786-0 9.18 µM | A549 4.67 µM | SN12C 11.1 µM | IGROV-1 10.4 µM | K562 3.2 µM | T47D 8.49 µM | SR 2.21 µM | SNB-19 17.6 µM | OVCAR-5 14.7 µM | OVCAR-8 9.48 µM | MDA-MB-435 8.34 µM | EKVX 13.8 µM | UACC-257 12.9 µM | DU-145 14.8 µM | COLO 205 14.3 µM

CCOC(=O)C(SCCO)C(C(=O)OCC)n1cc(C)c(=O)[nH]c1=O (centres undefined)
inactive: TK-10 24.9 µM | MDA-MB-231 15.9 µM | HCT-116 7.41 µM | 786-0 3.88 µM | A549 52.8 µM | SN12C 10.7 µM | IGROV-1 25.4 µM | K562 3.48 µM | T47D 19.6 µM | SR 6.92 µM | SNB-19 62.1 µM | OVCAR-5 15 µM | OVCAR-8 14.1 µM | MDA-MB-435 14.3 µM | EKVX 30.7 µM | UACC-257 28.2 µM | DU-145 > 74.6 µM | COLO 205 10 µM
